The values that follow come from PMC8424217 (The Journal of Biological Chemistry, 2021).

One experiment has as its target T1, rat thoracic aorta rings (Rattus norvegicus, UniProt P49684).
T1 sequence (P49684 1-386): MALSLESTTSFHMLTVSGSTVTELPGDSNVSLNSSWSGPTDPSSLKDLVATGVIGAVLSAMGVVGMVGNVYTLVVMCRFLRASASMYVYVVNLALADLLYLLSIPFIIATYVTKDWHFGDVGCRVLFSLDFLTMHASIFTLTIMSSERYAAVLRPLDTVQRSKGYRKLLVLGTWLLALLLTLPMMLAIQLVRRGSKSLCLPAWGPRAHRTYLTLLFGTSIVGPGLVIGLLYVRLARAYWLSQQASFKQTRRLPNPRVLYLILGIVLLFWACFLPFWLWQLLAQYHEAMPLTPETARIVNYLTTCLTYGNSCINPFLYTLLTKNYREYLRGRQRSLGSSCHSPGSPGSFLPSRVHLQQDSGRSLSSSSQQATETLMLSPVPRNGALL
Kind of experiment: Rat aortic ring contraction (agonist). To be noted: for contraction at 10 μM: n = 5; for contraction pEC50: n = 22 (hUII, URP), n = 5 (pepducins). The protocol:
Each replicate (n) was conducted on tissue obtained from at least three different animals. Data represent mean ± SEM.
Adult male Sprague-Dawley rats (Charles-River) weighing 250–300 g were housed in cages under controlled illumination (12:12 h light–dark cycle), humidity, and temperature (21–23 °C) and had free access to tap water and rat chow. All experimental procedures were performed in accordance with regulations and ethical guidelines from the Canadian Council for the Care of Laboratory Animals and received approvals of the institutional animal care and use committee of the Institut National de la Recherche Scientifique—Centre Armand-Frappier Santé Biotechnologie. As previously described ([17], [18]), the thoracic aorta was cleared of surrounding tissue and then excised from the aortic arch to the diaphragm. Conjunctive tissues were next removed from the thoracic aorta and the vessels were divided into five rings of 4 mm. The endothelium of each aortic ring was removed by gently rubbing the vessel intimal surface. Aortic rings were then placed in a 5 ml organ bath filled with oxygenated normal Krebs–Henseleit buffer. Eighty microliters of a 2.5 M potassium chloride solution (40 mM final concentration) was used to evaluate maximal contractile responses of each vessel. […] Cumulative concentration–response curves to synthetic peptides were obtained by increasing the concentration of each peptide in the remaining organ chambers (10^−11–10^−5 M).

The next experiment has as its target T2, hUT (Homo sapiens, UniProt Q9UKP6).
T2 sequence (Q9UKP6 1-389): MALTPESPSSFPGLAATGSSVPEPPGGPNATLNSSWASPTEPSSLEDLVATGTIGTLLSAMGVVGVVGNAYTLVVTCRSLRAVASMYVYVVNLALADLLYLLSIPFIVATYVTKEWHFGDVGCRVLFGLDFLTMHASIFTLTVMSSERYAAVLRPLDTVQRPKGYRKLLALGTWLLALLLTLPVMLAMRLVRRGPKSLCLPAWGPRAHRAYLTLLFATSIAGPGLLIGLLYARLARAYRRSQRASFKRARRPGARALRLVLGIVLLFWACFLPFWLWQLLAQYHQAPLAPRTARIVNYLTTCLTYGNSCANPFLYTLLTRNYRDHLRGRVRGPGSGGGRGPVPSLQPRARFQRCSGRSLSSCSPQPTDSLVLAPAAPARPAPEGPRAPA
Kind of experiment: ERK1/2 phosphorylation, western blot, CHO-hUT cells. It is filed as cell-based. Set-up: expressed in transfected cells; host or cells: CHO-K1 cells stably expressing hUT (gift from H. Vaudry and C. Dubessy, University of Rouen). The settings on record: for EC50 / effect of AG1478 (EGFR inhibitor) on ERK1/2 phosphorylation induced by the peptide / effect of PTX on ERK1/2 phosphorylation induced by the peptide / effect of U73122 (PLC inhibitor) on ERK1/2 phosphorylation induced by the peptide / time of second peak of ERK1/2 phosphorylation / time of maximal ERK1/2 phosphorylation: CHO-hUT; for EC50: 5 min stimulation, mean ± SEM of at least three independent experiments in triplicate, read-out: ERK1/2 phosphorylation pEC50 (converted); for effect of AG1478 (EGFR inhibitor) on ERK1/2 phosphorylation induced by the peptide: AG1478 5 μM 30 min pretreatment; for effect of AG1478 (EGFR inhibitor) on ERK1/2 phosphorylation induced by the peptide / effect of PTX on ERK1/2 phosphorylation induced by the peptide / effect of U73122 (PLC inhibitor) on ERK1/2 phosphorylation induced by the peptide: pepducin 10^−6 M, 5 min, n = 3; for effect of PTX on ERK1/2 phosphorylation induced by the peptide: PTX 200 ng/ml 24 h pretreatment; for effect of U73122 (PLC inhibitor) on ERK1/2 phosphorylation induced by the peptide: U73122 1 μM 60 min pretreatment; for time of second peak of ERK1/2 phosphorylation / time of maximal ERK1/2 phosphorylation: pepducins 10^−6 M; for time of maximal ERK1/2 phosphorylation: hUII 10^−7 M. The protocol: Figure 3 IP1production (A and B) and ERK1/2phosphorylation (C and D) kinetics and concentration dependence following hUT activation. IP1 production was evaluated using the IP-One terbium immunoassay kits while ERK1/2 phosphorylation was measured by western blot in CHO-K1 cells stably expressing hUT. […] Each curve represents the mean ± SEM of at least three independent experiments performed in triplicate.
ERK1/2 phosphorylation was measured by western blot. […] Quantification of ERK1/2 phosphorylation level was performed in three independent experiments done in triplicate (mean ± SEM, n = 3, ∗∗∗p < 0.001, ∗∗p < 0.01, or ∗p < 0.05, versus control).
CHO cells stably expressing hUT (CHO-hUT; gift from Drs H. Vaudry et C. Dubessy, University of Rouen, France) were grown in 12-well plates to 70–80% confluence and starved for 6 h in a serum-free medium. […] Briefly, HEK 293-hUT cells, grown in 12-well plates to 70–80% confluence, were starved for 6 h in a serum-free medium. […] Cells were then rinsed twice with ice-cold PBS and homogenized in 0.5 ml of lysis buffer (20 mM Tris, 150 mM NaCl, 1 mM EDTA, 1 mM EGTA, 1% Triton X-100, 2.5 mM sodium pyrophosphate, 1 mM β-glycerolphosphate, 1 mM Na3VO4, 1 μg mL^−1 leupeptin, 1 mM PMSF, 1 mM DTT) at 4 °C. Insoluble material was removed by centrifugation at 12,000 rpm for 30 min. The extract was treated with Laemmli sample buffer and heated for 5 min at 95 °C. Aliquots were assayed for protein concentration (BioRad) and an equal amount of total protein was subjected to 12% SDS–PAGE, followed by transfer to a nitrocellulose membrane. The membrane was blocked and then probed with primary antibody (phospho-p44/42 MAPK) at the optimal dilution (1/2000) with gentle agitation overnight at 4 °C. After washing with TTBS, membranes were then incubated with secondary antibody, conjugated with horseradish peroxidase (anti-rabbit HRP) diluted in TBST containing 5% skim milk (w/v) for 1 h at room temperature. Immunoreactive species were visualized by enhanced chemiluminescence using X-ray film and Thermo Scientific SuperSignal chemiluminescent substrates according to the manufacturer's instructions. Films were digitized and the intensity of the immunoreactive bands determined using Quantity One software from Bio-Rad.
(In western blotting, separated proteins are transferred to a membrane and probed.)

The test system of a further experiment is HEK 293-hUT cells. Nature of the experiment: Cell proliferation, MTT assay and flow cytometry, HEK 293-hUT cells. The experiment is classed as cell-based. To be noted: 10^−6 M, three independent experiments in triplicate. Here is the method: Each bar corresponds to the mean ± SEM obtained from three independent experiments conducted in triplicate.
HEK 293-hUT cell proliferation was evaluated by flow cytometry using propidium iodide DNA staining. […] Next, cells were detached, fixed with cold 70% ethanol, and then stored at –20 °C for at least 2 h. Cells were centrifuged at 200 rpm for 10 min at 4 °C and washed at least once with cold PBS. Cells were then resuspended in Triton X-100 (0.1%) supplemented with propidium iodide (500 μg mL^−1), and 200 μg mL^−1 of DNAse-free RNAse A in PBS. Data, expressed as the mean ± SEM of at least three independent experiments, were acquired on a FACScan (BD Biosciences), and results were analyzed with the FlowJo v10 software. The proliferation index is defined as the total number of divisions divided by the number of cells that went into division.
(Tetrazolium assays rely on reduction of a dye to a coloured formazan, in cell work by metabolically active cells.)

[1] abbreviates: percentage of contraction induced by 40 mM KCl.

Peptide text beside a SMILES is read from it. * marks the point of attachment. Palmitoyl = CCCCCCCCCCCCCCCC(=O)*

Turning to `CCCCCCCCCCCCCCCC(=O)N[C@@H](CCCNC(=N)N)C(=O)N1CCC[C@H]1C(=O)N[C@@H](CC(C)C)C(=O)N[C@@H](CC(=O)O)C(=O)N[C@H](C(=O)N[C@H](C(=O)N[C@@H](CCC(N)=O)C(=O)N[C@@H](CCCNC(=N)N)C(=O)N1CCC[C@H]1C(=O)N[C@@H](CCCCN)C(=O)NCC(=O)N[C@@H](Cc1ccc(O)cc1)C(N)=O)C(C)C)[C@@H](C)O` [hUT-Pep2] (Palmitoyl-RPLDTVQRPKGY-NH2), the “contraction at 10 μM” value on rat thoracic aorta rings (setting [1]) was 7% @ 10 μM. The “contraction pEC50” value on rat thoracic aorta rings (mean ± SEM) is less than 5. Besides, on hUT, the Emax was 34 ± 2%, the EC50 was 55 nM, the “effect of AG1478 (EGFR inhibitor) on ERK1/2 phosphorylation induced by the peptide” value is on record as “significantly reduced the ability of both hUT-derived pepducins to induce ERK1/2 phosphorylation” and the “effect of PTX on ERK1/2 phosphorylation induced by the peptide” value (shortened to “effect of PTX”) is listed as “unaffected by PTX treatment”. For the same compound, at hUT, the “effect of U73122 (PLC inhibitor) on ERK1/2 phosphorylation induced by the peptide” value was “only partially affected by the PLC inhibitor”, the “time of second peak of ERK1/2 phosphorylation” value is on record as “a similar pattern was not observed for hUT-Pep2” and the “time of maximal ERK1/2 phosphorylation” value is on record as 5 min. In the experiment on HEK 293-hUT cells, the “HEK 293-hUT cell proliferation” value is listed as “not hUT-Pep2 were able to induce HEK 293-hUT cell proliferation”.

Consider `CC(C)[C@H](NC(=O)[C@@H]1CSSC[C@H](NC(=O)[C@H](CC(=O)O)NC(=O)[C@@H]2CCCN2C(=O)[C@@H](NC(=O)[C@@H](N)CCC(=O)O)[C@@H](C)O)C(=O)N[C@@H](Cc2ccccc2)C(=O)N[C@@H](Cc2c[nH]c3ccccc23)C(=O)N[C@@H](CCCCN)C(=O)N[C@@H](Cc2ccc(O)cc2)C(=O)N1)C(=O)O` [hUII, urotensin II, reference compound], for which the “contraction pEC50” value at rat thoracic aorta rings (mean ± SEM) turned out to be 8.64 ± 0.09. Moreover, at rat thoracic aorta rings (percentage of contraction induced by 40 mM KCl, mean ± SEM, n = 22), the Emax was 102 ± 3%. Moreover, on hUT, the Emax was 102 ± 2%; the “effect of PTX” value is “substantially reduced, or even suppressed”; the “time of maximal ERK1/2 phosphorylation” value came to 5 min. Moreover, the “HEK 293-hUT cell proliferation” value in the experiment on HEK 293-hUT cells is “able to induce HEK 293-hUT cell proliferation”.

Turning to `CCCCCCCCCCCCCCCC(=O)N[C@@H](Cc1c[nH]c2ccccc12)C(=O)N[C@@H](CC(C)C)C(=O)N[C@@H](CO)C(=O)N[C@@H](CCC(N)=O)C(=O)N[C@@H](CCCNC(=N)N)C(=O)N[C@@H](C)C(=O)N[C@@H](CO)C(=O)N[C@@H](Cc1ccccc1)C(=O)N[C@@H](CCCCN)C(=O)N[C@@H](CCCNC(=N)N)C(=O)N[C@@H](C)C(=O)N[C@@H](CCCNC(=N)N)C(=O)N[C@@H](CCCNC(=N)N)C(N)=O` [[Trp^1, Leu^2]hUT-Pep3] (Palmitoyl-WLSQRASFKRARR-NH2), the “contraction at 10 μM” value at rat thoracic aorta rings (setting [1]) came to 16% @ 10 μM. The “contraction pEC50” value at rat thoracic aorta rings (mean ± SEM) is given as less than 5. Also, at hUT, the Emax came out at 56 ± 2%, the EC50 was 200 nM, the “effect of AG1478 (EGFR inhibitor) on ERK1/2 phosphorylation induced by the peptide” value is “significantly reduced the ability of both hUT-derived pepducins to induce ERK1/2 phosphorylation” and the “effect of PTX” value is “completely prevented”. At hUT, the “effect of U73122 (PLC inhibitor) on ERK1/2 phosphorylation induced by the peptide” value is given as “completely prevented”, the “time of second peak of ERK1/2 phosphorylation” value is listed as 60 min and the “time of maximal ERK1/2 phosphorylation” value amounted to 5 min. For the same compound, in the experiment with HEK 293-hUT cells, the “HEK 293-hUT cell proliferation” value was “able to induce HEK 293-hUT cell proliferation”.

For orientation: Emax means the greatest response seen or fitted, relative to the assay's reference.
